Test results reported in patent publication US8334107B2, “Detection systems utilizing supported lipid bilayers” (priority 2005, dated 2012).

Legend:
[1] = test system: DMPG lipid bilayer on MS-PPE; experiment: Disruption of DMPG lipid bilayer on MS-PPE detected by superquenching with AQS, flow cytometry; assay type: biochemical; conditions: 10 μM AQS; sMLT 3.8 μM, nMLT 1.6 μM
Method: Lipid bilayers were disrupted by adding Triton X-100® detergent to the bead suspension to a final concentration of 0.25% (w/v).
Bead suspensions of 2.5×10^5 PPE-coated microspheres in 200 μL PBS were analyzed using a FACScan flow cytometer (Becton-Dickinson, Sunnyvale, Calif.) with excitation at 488 nm. Fluorescence signals were acquired on the FL-1 channel (525 nm) using log amplification and analyzed with the CellQuest software.
(§1) Bead suspensions of 2.5×10^5 DMPG-coated MS-PPE in 200 μL of PBS were analyzed using a FACScan flow cytometer (Becton-Dickinson, Sunnyvale, Calif.) with excitation at 488 nm. Fluorescence signals were acquired on FL-1 channel (525 nm) using log amplification and analyzed with the CellQuest software. Kinetic analysis of disruption of supported lipid bilayer by melittin was performed by acquiring real-time data with continuous mixing of samples (10^6 MS-PPE in 800 μl of PBS) using a magnetic stirrer. The raw data were analyzed using IDL Query software developed by Bruce Edwards (Cancer Center, University of New Mexico, Albuquerque, N. Mex.).
Because an anionic lipid was used to form a lipid bilayer around MS-PPE, it was expected that MLT will disrupt the DMPG lipid bilayer by such a detergent-like action. This was tested by adding 10 μM AQS to DMPG-coated MS-PPE followed by treatment with one of the following: Triton X-100® detergent, synthetic MLT (sMLT), or natural MLT (nMLT) and immediately reading the fluorescence by flow cytometry. […] These histograms resemble the ones reported previously for MS-PPE, without a lipid coating, in absence and in presence of AQS.
The kinetics of disruption of supported lipid bilayer by MLT were monitored by measuring real-time changes in fluorescence intensity by flow cytometry (FIG. 19). Suspensions of 10^6 DMPG-coated MS-PPE in 800 μL of PBS were treated with AQS at a final concentration of 10 μM, then with either sMLT, Triton X-100® detergent, or no treatment. […] Treatment with sMLT in the absence of AQS led to an increase in normalized fluorescence (FIG. 19, trace A). This can be attributed to disruption of the lipid bilayer by sMLT, and is consistent with a reversal of the slight quenching of fluorescence caused by the formation of a DMPG lipid bilayer over MS-PPE. Addition of AQS alone to DMPG-coated MS-PPE (FIG. 19, trace C) led to a 20% reduction in fluorescence as reported earlier. Addition of Triton X-100® detergent to DMPG-coated MS-PPE after the addition of AQS (first dip in trace E, FIG. 19) caused immediate decrease in fluorescence to ˜10% of its original value (second dip in trace E, FIG. 19). In contrast, addition of sMLT, after the addition of AQS, (FIG. 19, trace D) led to a gradual reduction of fluorescence intensity to ˜20% of the original value. Although MLT forms dimers at high concentrations (Dempsey, C. E. Biochim. Biophys. Acta 1990, 1031, 143-161), it is monomeric at the concentrations used in this study. On the other hand, Triton X-100® detergent forms micelles at the concentration used in this study.

[2] = test system: DMPG bilayer on PPE-coated beads; experiment: Microfluidic assay: detection of lipid bilayer disruption by fluorescence superquenching; assay type: biochemical; conditions: injected as 1:1 mixture with 120 μM AQS
Method: The preparation of microcolumns with PPE-coated, silica beads was similar to that of with fluorescein containing beads. A 10 μL aliquot of 120 μM AQS was injected to the column. After a certain period of time, a 10 μL aliquot of 1:1 mixture of 120 μM AQS and 220 μM melittin was injected. During this process, the PPE-coated silica bead segment was irradiated at 488 nm and its fluorescence emission intensity was measured at 520 nm every 10 minutes. This experiment was repeated, while injecting 220 μM melittin first, and then 120 μM AQS.
The feasibility of using superquenching as a method of detecting membrane-toxin interactions in microcolumns was also investigated. The fluorescence intensity of the cationic polyelectrolyte poly(p-phenylene-ethynylene) polymer (PPE) can be super-quenched by the quencher 9,10-anthraquinone-2,6-disulfonic acid (AQS). […] It has been observed in flow cytometric studies that formation of DMPG membranes on PPE-coated beads will quench the PPE fluorescence to some extent. The initial rise in fluorescence intensity was probably due to the unquenching of the PPE, due to the removal of lipid bilayers from PPE-coated beads through melittin interaction, whereas the decrease in fluorescence corresponded to superquenching of PPE by AQS after disruption of DMPG bilayer by melittin. […]

[3] = test system: DMPG supported on MS-PPE; experiment: Binding curves of MLT to DMPG supported on MS-PPE (superquenching flow cytometric assay); conditions: flow cytometry, 10 μM AQS
Method: FIGS. 18A-B show binding curves for MLT-disruption of supported lipid bilayer by natural MLT (nMLT; FIG. 18A), and synthetic MLT (sMLT; FIG. 18B). Fluorescence intensity was normalized to that without MLT as determined by flow cytometry. The error bars represent the standard deviation (SD) of the means of normalized histograms obtained for 3 replicates.
as §1
From FIG. 18, the association constant (corresponding to the reciprocal of the point of half saturation) for nMLT and sMLT with DMPG were 5×10^6 M^−1 and 1.7×10^6 M^−1, respectively. […] Lower concentrations of nMLT, in comparison to sMLT, were required to disrupt the DMPG lipid bilayer. This might be attributed to the fact that nMLT contains some phospholipase A2 (PLA2) as a contaminant. […]

[4] = test system: EPC bilayer on porous silica beads; experiment: Suspension study: release of fluorescein dye from lipid bilayer coated porous silica beads; assay type: biochemical; conditions: all three concentrations 15, 45 and 250 μg/mL
Method: Lipid coatings on beads were disrupted using 10% Triton X-100. Each sample in micro-centrifuge tubes contained 5 mg of lipid bilayer coated, fluorescein entrapped beads in 200 μL of Tris buffer. Samples were centrifuged and 100 μL aliquots of supernatant were mixed with either 100 μL of Tris buffer or 100 μL of 10% Triton X-100® detergent in separate centrifuge tubes. The fluorescence intensity of each mixture was immediately (time=0) recorded. Each mixture was mixed with its respective bead sample in centrifuge tube and incubated at 25° C. in the dark. After 30 min, samples were centrifuged and fluorescent intensity of the supernatants was measured. Beads were resuspended in their respective supernatants. Fluorescence intensity was again measured at 90 and 150 min.
Experimental procedures were similar to the Triton X-100® detergent based analysis. For experiments with α-toxin, three different toxin concentrations: 15, 45 and 250 μg/mL were used at 37° C. and 25° C. Beads coated with EPC were used. In the experiments with melittin, 220 μM melittin was used with beads coated with either 100% EPC, 10:90 (molar ratio) mixture of DMPG and EPC or an 80:20 mixture of DMPG and DMPC. All melittin experiments were conducted at 25° C.
Previous suspension studies on disruption of lipid bilayers have been performed with small unilamellar vesicles where disruption of the lipid bilayer membranes was detected by monitoring the unquenching of a highly concentrated, encapsulated dye. In the present work disruption was monitored via release of fluorescein dye from porous beads, by measuring the increase in fluorescence intensity of the supernatant at 520 nm. Beads were first suspended in Tris buffer containing the disruptor. After selected time periods, beads were sedimented by centrifuging and a portion of the supernatant was taken for the measurement. The measured portion was added back to the bead sample to permit continuous monitoring. The scattering effect that was present in vesicle based studies was minimized by measuring only the supernatant after centrifugation of the beads.

[5] = test system: EPC vesicles; conditions: incubation with α-toxin; cited from earlier work
[6] = test system: supported lipid bilayer surrounding a porous bead; experiment: Kinetics of disruption of supported lipid bilayer by α-toxin, pH-reactive fluorescein in porous beads, flow cytometry; assay type: biochemical; conditions: pH outside 11.0, inside 2.6
Description: FIGS. 4A-B illustrates the effects of alpha-toxin on lipid bilayer integrity. FIG. 4A graphically illustrates dose-dependent release of fluorescent dye from a lipid bilayer coated microbead after introduction of different concentrations of alpha-toxin, a membrane-associated pore-forming protein from Staphylococcus aureus. The normalized fluorescence intensity (at 520 nm) of the supernatant is plotted versus time for EPC-coated, fluorescein filled porous beads when using different concentrations of α-toxin added. 10% Triton was added after 150 min. FIG. 4B illustrates the kinetics of disrupting a supported lipid bilayer by α-toxin as monitored by recording changes in fluorescence intensity every 2 minutes by flow cytometry. The lipid bilayer surrounded a porous bead that contains a pH-reactive molecule (fluorescein), and the pH outside the beads was adjusted to 11.0, whereas inside the beads the pH was 2.6. As illustrated, increasing amounts of α-toxin increases the fluorescence emitted from within the beads.
In another experiment a lipid bilayer surrounding a porous bead that contains a pH-reactive molecule (fluorescein) was exposed to α-toxin. The pH outside the beads was adjusted to 11.0, whereas inside the beads the pH was 2.6. The kinetics of disruption of supported lipid bilayer by α-toxin were monitored by recording changes in fluorescence intensity every 2 minutes by flow cytometry. For the first 8 minutes there was no significant change in fluorescence intensity (FIG. 4B). However, after 8 minutes there was a gradual increase in fluorescence intensity (FIG. 4B) resulting from insertion of α-toxin into the supported lipid bilayer thus forming channels permeable to hydrogen cations and hydroxyl ions, which reduces the difference in the pH outside and inside the microspheres. […] This can be attributed to insertion of many α-toxin channels at this high concentration leading to disruption of the lipid bilayer and immediate equilibration of the pH inside and outside the porous microspheres.

Substance	quenching of the MS-PPE after treatment [1]	change in fluorescence intensity of bead segment [2]	association constant (reciprocal of the point of half saturation) with DMPG [3] [M⁻¹]	increase in fluorescence intensity after 150 min ([4]; 25° C.)	increase in fluorescence intensity after 150 min ([4]; 37° C.)	dye encapsulated in EPC vesicles released [5] [%]	change in fluorescence intensity ([6]; 45 μg/mL)	concentration at which the increase in fluorescence intensity reached its maximum [6] [µg/mL]	time without significant change in fluorescence intensity before gradual increase ([6]; read every 2 minutes) [min]
nMLT: natural melittin from Sigma, contains some phospholipase A2 as a contaminant	comparable to that occurring on addition of Triton X-100	slight rise in fluorescence intensity followed by a significant decrease	5e+06						
α-toxin: membrane active pore-forming protein secreted by Staphylococcus aureus, ~33 kDa				about 3 fold	about 6.5 fold	27	did not cause a change in fluorescence intensity different from the baseline	15	8
